Experimental data: patent publication US20260217701A1, “SELECTIVE BET INHIBITORS AND USES THEREOF” (Tay Therapeutics Limited, priority 2022, published 2026)
“And” between values parts separate entries of the source, which are not always exact repeats. Equal entries are not always repeated.

System: imiquimod-induced psoriasis
Assay: Imiquimod-induced psoriasis model
Format: in vivo, mice
Set-up: Spleen Weight / Spleen Weight Ratio: unit not given here
Conditions: for PASI Scores / Number Licking / Number Licking + Scratching / Number Scratching / Distance Traveled / Number Rearings / Spleen Weight / Spleen Weight Ratio: individual animals; for Distance Traveled / Number Rearings: behavioral evaluation; for Spleen Weight / Spleen Weight Ratio: mice
In short: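 Mice given topical imiquimod (5% cream) daily on depilated backs Days 1–14; Compound A in 5% DMSO/40% PEG-400/55% saline from Day 8, clobetasol topical as reference. Daily PASI (erythema, induration, peeling, each 0–4, summed) Days 8–15; spleen weight, open-field behaviour, serum IL-1B, IL-6, IL-17, TNF-α, IL-22, IL-23 at Day 15.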

[1] = IMI-psoriasis model, behavioral evaluation D15, 1 mg/kg
[2] = IMI-psoriasis model, behavioral evaluation D15, 3 mg/kg
[3] = IMI-psoriasis model, behavioral evaluation D15, 10 mg/kg

SMILES: COCCn1cc(-c2ccccc2)c(-c2cn(C)c(=O)c3[nH]c(-c4cnn(C(F)(F)F)c4)cc23)cc1=O [Compound B, 4-(1-(2-methoxyethyl)-2-oxo-5-phenyl-1,2-dihydropyridin-4-yl)-6-methyl-2-(1-(trifluoromethyl)-1H-pyrazol-4-yl)-1,6-dihydro-7H-pyrrolo[2,3-c]pyridin-7-one]
- PASI Scores (IMI + Compound B 1 mg/kg, D13): 4 (2×) and 5 (3×) and 8 and 7 (2×)
- PASI Scores (IMI + Compound B 1 mg/kg, D14): 4 (2×) and 7 (2×) and 6 (3×) and 5
- PASI Scores (IMI + Compound B 1 mg/kg, D15): 5 (3×) and 7 and 4 and 6 (2×) and 3
- PASI Scores (IMI + Compound B 3 mg/kg, D8 (day treatment started)): 8 and 7 (4×)
- PASI Scores (IMI + Compound B 3 mg/kg, D9): 7 and 8 and 6 (3×)
- PASI Scores (IMI + Compound B 3 mg/kg, D10): 6 (2×) and 8 and 5 and 4
- PASI Scores (IMI + Compound B 3 mg/kg, D11): 5 (4×) and 6
- PASI Scores (IMI + Compound B 3 mg/kg, D12): 4 and 6 (3×)
- PASI Scores (IMI + Compound B 3 mg/kg, D13): 6 and 4 (3×)
- PASI Scores (IMI + Compound B 3 mg/kg, D14): 6 and 4 and 5 and 3
- PASI Scores (IMI + Compound B 3 mg/kg, D15): 4 and 5 and 3 and 1
- Use Enrichment D1 (IMI-psoriasis model, D1, 1 mg/kg, per cage (two animals)): 4.0
- Use Enrichment D1 (IMI-psoriasis model, D1, 3 mg/kg, per cage (two animals)): 4.0
- Use Enrichment D1 (IMI-psoriasis model, D1, 10 mg/kg, per cage (two animals)): 4.0
- Use Enrichment D8 (IMI-psoriasis model, D8, 1 mg/kg, per cage (two animals)): 1.0 and 1.5
- Use Enrichment D9 (IMI-psoriasis model, D9, 1 mg/kg, per cage (two animals)): 1.5 and 2.0 and 1.0
- Use Enrichment D10 (IMI-psoriasis model, D10, 1 mg/kg, per cage (two animals)): 2.5 and 1.5 and 3.0
- Use Enrichment D11 (IMI-psoriasis model, D11, 1 mg/kg, per cage (two animals)): 3.0 and 3.5 and 2.5
- Use Enrichment D11 (IMI-psoriasis model, D11, 3 mg/kg, per cage (two animals)): 2.0 and 4.0 and 2.5
- Use Enrichment D12 (IMI-psoriasis model, D12, 1 mg/kg, per cage (two animals)): 1.5 and 1.0
- Use Enrichment D13 (IMI-psoriasis model, D13, 10 mg/kg, per cage (two animals)): 4.0 and 2.5
- Use Enrichment D14 (IMI-psoriasis model, D14, 1 mg/kg, per cage (two animals)): 2.5 and 2.0 and 1.5
- Use Enrichment D14 (IMI-psoriasis model, D14, 3 mg/kg, per cage (two animals)): 3.0 and 4.0 and 3.5 and 2.5
- Use Enrichment D14 (IMI-psoriasis model, D14, 10 mg/kg, per cage (two animals)): 4.0
- Use Enrichment D15 (IMI-psoriasis model, D15, 3 mg/kg, per cage (two animals)): 3.5 and 4.0 and 3.0
- Use Enrichment D15 (IMI-psoriasis model, D15, 10 mg/kg, per cage (two animals)): 4.0
- Number Licking [1]: 3 (4×) and 2 and 7 and 4 and 5
- Number Licking + Scratching [1]: 5 (3×) and 8 and 3 and 4 and 7 and 6
- Number Scratching [1]: 2 (2×) and 5 and 0 (3×) and 1 and 3
- Number Licking [2]: 8 (2×) and 9 and 3 (4×)
- Number Licking + Scratching [2]: 8 and 11 and 4 and 3 (2×) and 5 and 13
- Number Scratching [2]: 0 (3×) and 2 (2×) and 1 and 5
- Number Licking [3]: 6 and 4 and 2 (4×) and 3
- Number Licking + Scratching [3]: 6 and 5 and 2 (2×) and 3 (3×)
- Number Scratching [3]: 0 (4×) and 1 (3×)
- Distance Traveled (IMI-psoriasis model, 1 mg/kg): 15 m and 7 m and 11 m and 8 m and 9 m and 13 m and 14 m (2×)
- Number Rearings (IMI-psoriasis model, 1 mg/kg): 44 and 23 and 47 and 19 and 29 and 27 and 87 and 49
- Distance Traveled (IMI-psoriasis model, 3 mg/kg): 17 m and 9 m and 23 m and 12 m and 15 m and 11 m and 13 m
- Number Rearings (IMI-psoriasis model, 3 mg/kg): 27 and 38 and 121 and 47 and 31 and 60 and 57
- Distance Traveled (IMI-psoriasis model, 10 mg/kg): 15 m and 14 m and 16 m and 7 m (3×) and 6 m
- Number Rearings (IMI-psoriasis model, 10 mg/kg): 44 (2×) and 71 and 6 and 11 and 1 and 13
- Use Enrichment Mean D1-D8 (IMI-psoriasis model, mean D1-D8, 1 mg/kg, per cage (two animals)): 2.50 and 2.75
- Use Enrichment Mean D1-D8 (IMI-psoriasis model, mean D1-D8, 3 mg/kg, per cage (two animals)): 2.50 and 2.75 and 2.25
- Use Enrichment Mean D1-D8 (IMI-psoriasis model, mean D1-D8, 10 mg/kg, per cage (two animals)): 2.50 and 2.75 and 2.00 and 3.00
- Use Enrichment Mean D8-D15 (IMI-psoriasis model, mean D8-D15, 1 mg/kg, per cage (two animals)): 2.57 and 2.07 and 2.43 and 2.14
- Use Enrichment Mean D8-D15 (IMI-psoriasis model, mean D8-D15, 10 mg/kg, per cage (two animals)): 3.50 and 2.29 and 1.93 and 3.07
- Spleen Weight (IMI-psoriasis model, 1 mg/kg): 255.35 and 280.52 and 235.85 and 298.12 and 227.47 and 255.31 and 244.77 and 316.12
- Spleen Weight Ratio (IMI-psoriasis model, 1 mg/kg): 1562.73 and 1912.20 and 1309.55 and 1793.74 and 1315.62 and 1552.98 and 1518.42 and 1820.97
- Spleen Weight (IMI-psoriasis model, 3 mg/kg): 244.98 and 212.34 and 270.73 and 183.55 and 232.29 and 224.28 and 206.85 and 220.98
- Spleen Weight Ratio (IMI-psoriasis model, 3 mg/kg): 1777.79 and 1257.94 and 1699.50 and 1016.90 and 1343.49 and 1313.11 and 1297.68 and 1278.08
- Spleen Weight (IMI-psoriasis model, 10 mg/kg): 184.80 and 169.45 and 184.96 and 119.62 and 101.24 and 156.25 and 130.42 and 159.58
